Test results reported in patent US12629374B2, “Antimalarial agents” (Merck Sharp & Dohme LLC, priority 2020, dated 2026).

System: ring stage parasites
Assay: Parasite growth potency assay, 72 hours, LDH readout
Format: cell-based
Settings: 72 h, parasite growth measured by LDH assay after 72 hours at 37° C.; 0.7% rings, 2% haematocrit; read-out: EC50
Summary of the method: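 Parasite growth was quantified by LDH assay after a −80 °C freeze-thaw. Before that, compound was incubated for 72 h at 37 °C under humidified gas with ring-stage cultures adjusted to 0.7% parasitemia and 2% haematocrit in serum- and albumax-supplemented RPMI-Hepes.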

For `CCC1(CC)CC(=O)N(C(CCOC)c2ccc(C(F)(F)F)c(C(=O)N[C@@H]3c4ccccc4C[C@@]3(C)O)c2)C(=N)N1` (stereo partly drawn) [Example 241, 5-[1-(4,4-diethyl-2-imino-6-oxo-hexahydropyrimidin-1-yl)-3-methoxy-propyl]-N-[(1R,2R)-2-hydroxy-2-methyl-indan-1-yl]-2-(trifluoromethyl)benzamide], the EC50 was 9.84 nM.
With `CCC1(CC)CC(=O)N(Cc2cccc(C(=O)N[C@@H]3CC(C)(C)Oc4cccc(F)c43)c2)C(=N)N1` (stereo in doubt) [Example 94B, [4,4-diethyl-1-[[3-[(5-fluoro-2,2-dimethyl-chroman-4-yl)carbamoyl]phenyl]methyl]-6-oxo-hexahydropyrimidin-2-ylidene]ammonium; 2,2,2-trifluoroacetate] the EC50 was 72.5 nM.
`CCC1(CC)CC(=O)N([C@@H](c2cccnc2)c2cccc(C(=O)N[C@@H]3c4ccccc4C[C@H]3O)c2)C(=N)N1` [Example 109B, [4,4-diethyl-1-[[3-[[(1R,2R)-2-hydroxyindan-1-yl]carbamoyl]phenyl]-pyridin-1-ium-3-yl-methyl]-6-oxo-hexahydropyrimidin-2-ylidene]ammonium; 2,2,2-trifluoroacetate] gave an EC50 of 22.9 nM.
